Assay results: paper PMC11232401, “Characterization of antimalarial activity of artemisinin-based hybrid drugs” (Antimicrobial Agents and Chemotherapy, 2024)
Where two headings read alike, the source gives them in different places.

Assays:
[1] = tested on: ring stages of NF54 strain of P. falciparum; assay: Exposure time dependence in drug activity (pLDH); format: cell-based; conditions: Plasmodium falciparum
Procedure: Each well of 96-well plates was filled with 100 µL drug and 100 µL culture containing ring-stage P. falciparum (NF54 strain) parasites, which were mixed to obtain a final parasitemia of 1.0% to 1.5% and 1.0% hematocrit. Plates were incubated at 37°C in a standard gas mixture. After 3 h and 6 h, plates were centrifuged, cell pellets were washed as described above then returned to the incubator for an additional 69 h and 66 h, respectively. In parallel, the same experiment was left without the washing step, enabling continuous drug exposure throughout. Plates were processed using the pLDH method, and IC50 values were calculated as described above. Three independent experiments were performed using two technical replicates.
Figure S2: Exposure time dependence of antiparasitic activity against ring stages of CQ-sensitive strain NF54 of P. falciparum. Data associated to Figure 2B in the main text of the manuscript. Footnotes for table: ^[a] Synchronized ring-stage parasites were incubated in the presence of compounds at indicated times, drugs were removed by washing, and plates were incubated until 72 h.^[b] Parasites were incubated in the presence of compounds for 72 h. ^[a,b^] Experiments were performed in parallel (paired). Parasite viability was determined by parasite lactate dehydrogenase (pLDH) assay. Data are from three experiments performed in duplicate.^ [c] […] MFQ = mefloquine. DHA = dihydroartemisinin; SEM = standard error of the mean; N.S. = not statistically significant.

[2] = tested on: Asynchronous NF54 strain of P. falciparum; assay: Speed of drug activity (pLDH); format: cell-based, Plasmodium falciparum; conditions: for IC50: Plasmodium falciparum, NF54, asynchronous, mean (95% CI); for Conclusion (speed of antiparasitic activity): from IC50 at 24, 48, 72 h
Procedure: Each well of 96-well plates was filled with 100 µL drug and 100 µL culture containing asynchronous P. falciparum (NF54 strain) parasites, which were mixed to obtain a final parasitemia of 1.0% to 1.5% and 1.0% hematocrit. The plates were incubated for 24, 48, and 72 h at 37°C with a standard gas mixture. […] Parasite viability was measured using the pLDH method, and IC50 values were calculated as described above. Three independent experiments were performed using two technical replicates.
Figure S3: Speed of antiparasitic activity of hybrids (1) and (2) against CQ-sensitive NF54 strain of P. falciparum. Panel A: Representative response-concentration curves. Panel B: A table summarizing the results. Footnotes for table: ^[a] Parasite viability was accessed at each indicated time (24, 48, or 72 h) after addition of drugs. Values are the mean and 95% confidence interval of one experiment using each concentration of compounds in duplicate. Parasite viability was determined by parasite lactate dehydrogenase (pLDH) assay. DHA = dihydroartemisinin; ATO = atovaquone.

[3] = tested on: D10 strain of P. falciparum; assay: Host cell-mediated drug degradation: antiplasmodial activity of uRBC supernatants; format: cell-based, Plasmodium falciparum; conditions: uRBC 1.0% hematocrit; for IC50: Plasmodium falciparum, 0.16 h, D10, pLDH, median ± SEM, read-out: IC50 of supernatants harvested at 0.16 h; for Fold changes (24 h/0.16 h): D10
Procedure: (§1) Each well of 96-well plates was filled with 125 µL drug (1000 nM) and 125 µL uninfected red blood cells (uRBC), which were mixed to obtain a final drug concentration of 500 nM and 2.5% or 1.0% hematocrit. The plates were incubated at 37°C in the standard gas mixture. After each time point (10 min, 6 h, and 24 h), supernatants were carefully harvested and stored at −80°C until use. Untreated uRBC incubated at the same times were used as negative controls, and DHA and AQ were employed as standard drugs. Next, supernatants were diluted in a complete medium in six different dilutions and were aliquoted in new plates. The antimalarial activity of these supernatants and freshly dissolved drugs was determined in an asynchronous parasite culture of P. falciparum (3D7, D10, and W2 strains) for 72 h using the same method described above, and parasite viability was assessed by the pLDH ([38]) and SYBR Green I ([41]) methods. Only the experiments where the IC50 values of the supernatants harvested at 10 min were the same as those of the respective fresh drugs were considered for determining equivalent drug concentration. […] Decay in drug concentration was estimated by using the normalized slope values calculated from linear regression fits using the slope values of a standard curve as reference. Three independent experiments were performed using two replicates.
(§2) Figure S5: Data associated to Figure 3 in the main text of the manuscript. Panel A: Representative response-concentration curves of the antiplasmodial activity of supernatant-derived uRBC (2.5% hematocrit) harvested at indicated times (0.16, 6, and 24 h). Drug activity on parasite viability was determined 72 h after parasite incubation (3D7 strain, asynchronous). Values were subtracted from control (without treatment), transformed, and normalized to calculate nonlinear fit. Parasite viability was determined by SYBR Green I. Values are mean and error bars are the standard deviation of a single experiment, each concentration in duplicate. Panel B: A table summarizing the IC50 values. Footnotes: ^[a] Parasite viability was determined by SYBR Green I. ^[b^] Parasite viability was determined by pLDH readout. Values are median ± SEM of three independent experiments, each concentration in duplicate. ^[c^] […] These values are expressed as mean and 95% confidence interval (CI) of one experiment, each concentration in duplicate. AQ = amodiaquine; DHA = dihydroartemisinin; uRBC = uninfected red blood cells. Unpaired two-tailed t-test at 95% CI: *p <0.05; **p <0.01.

[4] = tested on: W2 strain (CQ-resistant) of P. falciparum; assay: as above; format: cell-based, Plasmodium falciparum; conditions: uRBC 1.0% hematocrit; for IC50: Plasmodium falciparum, 0.16 h, W2, pLDH, median ± SEM, read-out: IC50 of supernatants harvested at 0.16 h; for Fold changes (24 h/0.16 h): W2
Procedure: as §1, §2

F32-ART parasites = assay: In vitro recrudescence assay; format: cell-based, Plasmodium falciparum; conditions: 700 nM, 48 h exposure; for Recrudescence time in days (median; range), Recrudescence assay F32-ART: monitored up to 30 days
Procedure: (§3) Parasites were washed with RPMI-1640 medium before being placed in drug-free culture conditions with 10% human serum. Parasitemia was determined daily by Giemsa-staining of blood smears until the cultures reached their initial parasitemia, defined as the recrudescence day. […] Two independent experiments were performed ([10]).

F32-TEM parasites = assay: In vitro recrudescence assay; format: cell-based, Plasmodium falciparum; conditions: 700 nM, 48 h exposure, monitored up to 30 days
Procedure: as §3

[5] = tested on: F32-TEM (sensitive) early ring-stage parasites; assay: Ring-stage survival assay (RSA0-3h); format: cell-based, Plasmodium falciparum; conditions: 700 nM, 6 h pulse, 66 h growth
Procedure: Early ring-stage parasites (0–3 h post-invasion) of F32-ART and F32-TEM strains highly synchronized by Percoll-Sorbitol treatment were exposed to 700 nM of the drugs or 0.1% DMSO (control) for 6 h. Each drug was tested in duplicate. Parasite pellets were then washed in RPMI-1640 medium before being placed in drug-free culture conditions with 10% human serum and incubated for 66 h ([44]). Survival rates were assessed microscopically by two independent microscopists by counting the parasites in 10,000 RBCs. Three independent experiments were performed.

[6] = NF54, 6 h drug pulse, wash, incubated until 72 h, median ± SEM, read-out: IC50, 6 h + 66 h
[7] = NF54, 72 h continuous drug, median ± SEM, read-out: IC50, 72 h
[8] = NF54, read-out: IC50, 3 h + 69 h, 3 h drug pulse, wash, incubated until 72 h, median ± SEM
[9] = viability at 24 h, read-out: IC50, 24 h
[10] = viability at 48 h, read-out: IC50, 48 h
[11] = viability at 72 h, read-out: IC50, 72 h

Row | SMILES | IC50 [1, 6] [nM] | IC50 [1, 7] [nM] | IC50 [1, 8] [nM] | IC50 [2, 9] [nM] | IC50 [2, 10] [nM] | IC50 [2, 11] [nM] | Conclusion (speed of antiparasitic activity) [2] | IC50 [3] [nM] | Fold changes (24 h/0.16 h) [3] | IC50 [4] [nM] | Fold changes (24 h/0.16 h) [4] | delay in recrudescence between F32-ART and F32-TEM (F32-ART parasites) [days] | Recrudescence time in days (median; range), Recrudescence assay F32-ART (F32-ART parasites) | Recrudescence time in days (median; range), Recrudescence assay F32-TEM (F32-TEM parasites) | Survival rate (%) from the RSA0-3h, F32-TEM (sensitive) [5] [%]
1 | C[C@H]1[C@@H](O)O[C@@H]2O[C@@]3(C)CC[C@H]4[C@H](C)CC[C@@H]1[C@@]24OO3 [DHA, dihydroartemisinin, reference compound] | 5 ± 0.5 | 1.9 ± 0.2 | 100 ± 25 | 8.3 | 2.9 | 2.7 | Fast-acting | 3.5 ± 0.43 | 19.9 ± 0.09 | 1.9 ± 0.25 | 15.82 ± 2.21 | 8 | 7.5 (7–8) days | 16.5 (15–18) days | 0.04 ± 0.03
2 | COCCOCCOCCOCCn1c(-c2ccc(-n3cc(-c4ccc(OC5OC6OC7(C)CCC8C(C)CCC(C5C)C68OO7)cc4)nn3)cc2)nc2ccccc21 (stereo not drawn) [Hybrid 1] | 1.5 ± 0.3 | 1.5 ± 0.1 | 220 ± 80 | 2.4 | 3 | 2 | Fast-acting | 1.8 ± 0.08 | 0.90 ± 0.08 |  | 0.98 ± 0.22 |  | 11.5 (10– 13) days | > 20 (21–>30) days | 0.05 ± 0.03
3 | CC1CCC2C(C)C(OC(=O)CCC(=O)OCCNc3ccnc4cc(Cl)ccc34)OC3OC4(C)CCC1C32OO4 (stereo not drawn) [Hybrid 2] | 9 ± 1.5 | 3.8 ± 0.4 | 75 ± 18 | 9.4 | 4.3 | 5.6 | Fast-acting | 3.7 ± 1.32 | 1.25 ± 0.46 | 4.3 ± 1.74 | 1.38 ± 0.15 |  | 7.5 (7–8) days | 16 (14–18) days | 0.04 ± 0.02
